Two compounds from patent publication US20240277585A1, “COMPOSITION OF LIPID NANOPARTICLE CONTAINING VITIS VINIFERA EXTRACT, COSMETIC USES OF A COMPOSITION OF LIPID NANOPARTICLE CONTAINING VITIS VINIFERA EXTRACT, ANTIOXIDANT DERMOCOSMETIC PRODUCT AND FOR PREVENTING SKIN AGING AND SKIN CARE METHOD” (ACHÉ LABORATÓRIOS FARMACÊUTICOS S.A., priority 2021, published 2024) can be followed below.

Common to all, as to format: biochemical
Test [1] concerns the target T1, MMP 1 (Homo sapiens, UniProt P03956).
T1 sequence (P03956 100-469): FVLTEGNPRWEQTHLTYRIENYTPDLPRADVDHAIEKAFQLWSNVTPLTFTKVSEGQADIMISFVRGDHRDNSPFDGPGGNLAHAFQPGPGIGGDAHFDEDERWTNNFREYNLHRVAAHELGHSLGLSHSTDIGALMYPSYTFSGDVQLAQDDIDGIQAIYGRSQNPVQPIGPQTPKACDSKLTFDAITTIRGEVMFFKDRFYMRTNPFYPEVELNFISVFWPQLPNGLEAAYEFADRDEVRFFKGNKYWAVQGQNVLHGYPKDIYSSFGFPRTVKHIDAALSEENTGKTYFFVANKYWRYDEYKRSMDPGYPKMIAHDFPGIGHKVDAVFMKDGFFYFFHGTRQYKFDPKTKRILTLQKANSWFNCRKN
Description: Activity of the metalloproteases (MMP) enzyme. The procedure:
(§1) The anti-aging effect of the composition of the first aspect was determined by the methods that measure the activity of the elastase enzyme and the activity of the metalloproteases (MMP) enzyme.

Test [2] concerns the target MMP 3 (Homo sapiens, UniProt P08254). Description: Activity of the metalloproteases (MMP) enzyme. How it is done:
as §1

For test [3], the target named is MMP 12 (Homo sapiens, UniProt P39900). Description: Activity of the metalloproteases (MMP) enzyme. The procedure: as §1
Test [4] relates to elastase. Description: Activity of the elastase enzyme. How it is done:
as §1

Sequence of MMP 12 (P39900 106-470): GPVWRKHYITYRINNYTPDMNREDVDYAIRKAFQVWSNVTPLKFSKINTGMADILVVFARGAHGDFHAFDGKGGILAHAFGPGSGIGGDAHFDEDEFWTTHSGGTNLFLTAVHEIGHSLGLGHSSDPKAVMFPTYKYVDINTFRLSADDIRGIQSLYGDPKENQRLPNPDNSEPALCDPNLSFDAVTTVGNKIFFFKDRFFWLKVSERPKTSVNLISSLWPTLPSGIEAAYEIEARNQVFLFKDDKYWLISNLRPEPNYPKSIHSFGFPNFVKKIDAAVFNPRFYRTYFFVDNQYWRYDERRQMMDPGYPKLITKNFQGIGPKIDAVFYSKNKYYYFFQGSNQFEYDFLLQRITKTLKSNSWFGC
Sequence of MMP 3 (P08254 100-477): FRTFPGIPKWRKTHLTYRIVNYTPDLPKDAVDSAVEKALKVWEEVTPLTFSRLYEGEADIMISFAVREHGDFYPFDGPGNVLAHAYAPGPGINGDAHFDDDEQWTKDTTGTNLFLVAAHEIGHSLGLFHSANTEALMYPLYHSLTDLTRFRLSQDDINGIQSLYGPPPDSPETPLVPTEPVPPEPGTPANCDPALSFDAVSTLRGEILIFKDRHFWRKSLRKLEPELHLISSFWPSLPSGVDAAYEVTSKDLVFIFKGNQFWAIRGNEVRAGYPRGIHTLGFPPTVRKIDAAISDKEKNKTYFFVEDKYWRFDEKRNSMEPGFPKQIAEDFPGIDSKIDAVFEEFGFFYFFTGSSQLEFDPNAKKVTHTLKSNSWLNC

Regarding `O=C1O[C@H]([C@@H](O)CO)C(O)=C1O` [Vitamin C], in test [1], the “Inhibition of the activity of MMP 1” value is given as “do not present this result”. Also, in test [2], the “Inhibition of the activity of MMP 3” value is “do not present this result”. The “Inhibition of the activity of MMP 12” value in test [3] was “do not present this result”. The “Inhibition of the activity of elastase” value in test [4] is “do not present such result”.

On to Vitamin E, for which the “Inhibition of the activity of MMP 1” value in test [1] is given as “do not present this result”. For the same compound, in test [2], the “Inhibition of the activity of MMP 3” value is listed as “do not present this result”. For the same compound, in test [3], the “Inhibition of the activity of MMP 12” value was “do not present this result”. Also, the “Inhibition of the activity of elastase” value in test [4] is listed as “do not present such result”.
